Test results reported in patent US8299056B2 (Signal Pharmaceuticals, LLC, priority 2008, dated 2012).

molecular target: T1, Syk (Homo sapiens, UniProt P43405); assay: Syk HTRF assay; format: biochemical; settings: IC50 activity level, read-out: Activity Level
T1 construct: purchased Carna Biosciences
Procedure, shortened: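 HTRF kinase assay in HEPES pH 7.6 buffer with MgCl2, DTT and Triton X100; start mix of 87.5 μM ATP and 80 nM biotinylated peptide, 1 h at room temperature. EDTA stop, then Eu-anti-phosphotyrosine/streptavidin-DyLight 647 detection, read as 665/615 nm emission ratio.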

SMILES | IC50 [nM]
c1ccc(Cc2cccc3nc(Nc4ccccc4)nn23)cc1 [Example 506, 5-benzyl-N-phenyl-[1,2,4]triazolo[1,5-a]pyridin-2-amine] | 1000 to 10000
CC(CO)Cc1cccc2nc(Nc3ccccc3)nn12 (stereo in doubt) [Example 480, (S)-2-methyl-3-(2-(phenylamino)-[1,2,4]triazolo[1,5-a]pyridin-5-yl)propan-1-ol] | 250 to 500
Nc1cc(-c2cccc3nc(Nc4ccccc4)nn23)ccn1 [Example 445, 5-(2-aminopyridin-4-yl)-N-phenyl-[1,2,4]triazolo[1,5-a]pyridin-2-amine] | 0.005 to 250
c1ccc(Nc2nc3cccc(Nc4ccccn4)n3n2)cc1 [Example 484, N^2-phenyl-N^5-(pyridin-2-yl)-[1,2,4]triazolo[1,5-a]pyridin-2,5-diamine] | 500 to 1000
CC1(C)C(=O)Nc2cc(Nc3nc4cccc(C(F)(F)C5CCOCC5)n4n3)ccc21 [Example 536, 6-(5-(difluoro(tetrahydro-2H-pyran-4-yl)methyl)-[1,2,4]triazolo[1,5-a]pyridin-2-ylamino)-3,3-dimethylindolin-2-one] | 0.005 to 250
c1cc(CC2CCOCC2)n2nc(Nc3ccc(-c4nc[nH]n4)cc3)nc2c1 [Example 557, N-(4-(1H-1,2,4-triazolo-3-yl)phenyl)-5-((tetrahydro-2H-pyran-4-yl)methyl)-[1,2,4]triazolo[1,5-a]pyridin-2-amine] | 500 to 1000

Other lines, results leading:

IC50 [nM] | SMILES
1000 to 10000 | CNC(=O)c1ccc(Nc2nc3cccc(NC4CCOC4)n3n2)cc1 (stereo not drawn) [Example 441, N-methyl-4-(5-(tetrahydrofuran-3-ylamino)-[1,2,4]triazolo[1,5-a]pyridin-2-ylamino)benzamide]
1000 to 10000 | c1ccc(Nc2nc3cccc(NC4CCOCC4)n3n2)cc1 [Example 438, N^2-phenyl-N^5-(tetrahydro-2H-pyran-4-yl)-[1,2,4]triazolo[1,5-a]pyridine-2,5-diamine]
250 to 500 | O[C@@H]1CC[C@H](Nc2cccc3nc(Nc4ccc(C(F)(F)F)cc4)nn23)C1 [Example 421, (1R,3S)-3-(2-(4-(trifluoromethyl)phenylamino)-[1,2,4]triazolo[1,5-a]pyridin-5-ylamino)cyclopentanol]
0.005 to 250 | c1ccc(Nc2nc3cccc(N[C@H]4CCCNC4)n3n2)cc1 [Example 507, (S)-N^2-phenyl-N^5-(piperidin-3-yl)-[1,2,4]triazolo[1,5-a]pyridin-2,5-diamine]
1000 to 10000 | c1cc(NC2CCOCC2)n2nc(Nc3ccc(-c4nc[nH]n4)cc3)nc2c1 [Example 565, N^2-(4-(1H-1,2,4-triazol-3-yl)phenyl)-N^5-(tetrahydro-2H-pyran-4-yl)-[1,2,4]triazolo[1,5-a]pyridine-2,5-diamine]
250 to 500 | c1ccc(Nc2nc3cccc(N[C@H]4CCNC4)n3n2)cc1 [Example 475, (S)-N^2-phenyl-N^5-(pyrrolidin-3-yl)-[1,2,4]triazolo[1,5-a]pyridin-2,5-diamine]
0.005 to 250 | c1cncc(Nc2nc3cccc(NC4CCCNC4)n3n2)c1 (stereo in doubt) [Example 433, (S)-N^5-(piperidin-3-yl)-N^2-(pyridin-3-yl)-[1,2,4]triazolo[1,5-a]pyridin-2,5-diamine]

same assay, conditions: activity levels A-D, read-out: Activity Level (IC50 in the Syk HTRF assay)

IC50 [nM] | SMILES
250 to 500 | N#Cc1cccc(Nc2nc3cccc(N[C@H]4CC[C@@H](O)CC4)n3n2)c1 [Example 348, cis-3-(5-(4-hydroxycyclohexylamino)-[1,2,4]triazolo[1,5-a]pyridin-2-ylamino)benzonitrile]
1000 to 10000 | NC(=O)c1cc(Nc2nc3cccc(N[C@H]4CC[C@@H](O)CC4)n3n2)ccn1 [Example 255, cis-4-(5-(4-hydroxycyclohexylamino)-[1,2,4]triazolo[1,5-a]pyridin-2-ylamino)picolinamide]
500 to 1000 | O=C1NCc2ccc(Nc3nc4cccc(N[C@H]5CC[C@@H](O)CC5)n4n3)cc21 [Example 260, cis-6-(5-(4-hydroxycyclohexylamino)-[1,2,4]triazolo[1,5-a]pyridin-2-ylamino)isoindolin-2-one]
1000 to 10000 | OCC1CCN(Cc2cccc3nc(Nc4ccc(C(F)(F)F)cc4)nn23)CC1 [Example 274, (1-((2-(4-(trifluoromethyl)phenylamino)-[1,2,4]triazolo[1,5-a]pyridin-5-yl)methyl)piperidin-4-yl)methanol]
0.005 to 250 | CC1C(=O)NCCN1Cc1cccc2nc(Nc3ccc(C(F)(F)F)cc3)nn12 (stereo not drawn) [Example 281, 3-methyl-4-((2-(4-(trifluoromethyl)phenylamino)-[1,2,4]triazolo[1,5-a]pyridin-5-yl)methyl)piperazin-2-one]
500 to 1000 | O[C@H]1CC[C@@H](Nc2cccc3nc(Nc4ccnc(OCCN5CCCC5)c4)nn23)CC1 [Example 293, cis-4-(2-(2-(2-(pyrrolidiun-1-yl)ethoxy)pyridin-4-ylamino)-[1,2,4]triazolo[1,5-a]pyridin-5-ylamino)cyclohexanol]
0.005 to 250 | CNC(=O)c1ccc(Nc2nc3cccc(CC4CCC(N)CC4)n3n2)cc1 (stereo not drawn) [Example 262, 4-(5-((4-aminocyclohexyl)methyl)-[1,2,4]triazolo[1,5-a]pyridin-2-ylamino)-N-methylbenzamide]
500 to 1000 | C[C@@H](CO)Nc1cccc2nc(Nc3ccc(C(F)(F)F)cc3)nn12 [Example 329, (S)-2-(2-(4-(trifluoromethyl)phenylamino)-[1,2,4]triazolo[1,5-a]pyridin-5-ylamino)propan-1-ol]

same assay, conditions: read-out: Activity Level (Syk HTRF assay IC50)

SMILES | IC50 [nM]
NCc1ccc(Nc2nc3cccc(-c4cccc(O)c4)n3n2)cc1 [compound 24, 3-(2-(4-(aminomethyl)phenylamino)-[1,2,4]triazolo[1,5-a]pyridin-5-yl)phenol] | 250 to 500
Cn1cnc2ccc(Nc3nc4cccc(-c5ccccc5)n4n3)cc21 [compound 47, N-(1-methyl-1H-benzo[d]imidazol-6-yl)-5-phenyl-[1,2,4]triazolo[1,5-a]pyridin-2-amine] | 0.005 to 250
Oc1cccc(-c2cccc3nc(Nc4ccc5cn[nH]c5c4)nn23)c1 [compound 27, 3-(2-(1H-indazol-6-ylamino)-[1,2,4]triazolo[1,5-a]pyridin-5-yl)phenol] | 0.005 to 250
NC(=O)c1cc(Nc2nc3cccc(-c4ccccc4)n3n2)ccn1 [compound 51, 4-(5-phenyl-[1,2,4]triazolo[1,5-a]pyridin-2-ylamino)picolinamide] | 1000 to 10000
CC(c1cccc2nc(Nc3ccc4c(c3)NC(=O)C4(C)C)nn12)C1CCOCC1 (stereo not drawn) [Example 159, 3,3-dimethyl-6-(5-(1-(tetrahydro-2H-pyran-4-yl)ethyl)-[1,2,4]triazolo[1,5-a]pyridin-2-ylamino)indolin-2-one] | 0.005 to 250
Cn1cnc2cc(Nc3nc4cccc(-c5ccccc5)n4n3)ccc21 [compound 55, N-(1-methyl-1H-benzo[d]imidazol-5-yl)-5-phenyl-[1,2,4]triazolo[1,5-a]pyridin-2-amine] | 250 to 500
Fc1ccccc1-c1cccc2nc(Nc3ccccc3)nn12 [compound 80, 5-(2-fluorophenyl)-N-phenyl-[1,2,4]triazolo[1,5-a]pyridin-2-amine] | 1000 to 10000
CC1(C)C(=O)Nc2cc(Nc3nc4cccc(C(O)C5CCOCC5)n4n3)ccc21 (stereo not drawn) [Example 173, 6-(5-(hydroxy(tetrahydro-2H-pyran-4-yl)methyl)-[1,2,4]triazolo[1,5-a]pyridin-2-ylamino)-3,3-dimethylindolin-2-one] | 250 to 500
CNC(=O)c1ccc(Nc2nc3cccc(-c4cccc(CCN)c4)n3n2)cc1 [compound 11, 4-(5-(3-(2-aminoethyl)phenyl)-[1,2,4]triazolo[1,5-a]pyridin-2-ylamino)-N-methylbenzamide] | 250 to 500
Nc1cc(Nc2nc3cccc(-c4ccccc4)n3n2)ccn1 [compound 40] | 500 to 1000
c1ccc(-c2cccc3nc(Nc4ccc5oncc5c4)nn23)cc1 [compound 43, N-(5-phenyl-[1,2,4]triazolo[1,5-a]pyridin-2-yl)benzo[d]isoxazol-5-amine] | 0.005 to 250
CC(C)n1ncc2ccc(Nc3nc4cccc(CN5CCNC(=O)C5)n4n3)cc21 [Example 188, 4-((2-(1-isopropyl-1H-indazol-6-ylamino)-[1,2,4]triazolo[1,5-a]pyridin-5-yl)methyl)piperazin-2-one] | 0.005 to 250
CNC(=O)c1ccc(Nc2nc3cccc(-c4cccc(Cl)c4)n3n2)cc1 [compound 13, 4-(5-(3-chlorophenyl)-[1,2,4]triazolo[1,5-a]pyridin-2-ylamino)-N-methylbenzamide] | 0.005 to 250
Cc1n[nH]c2cc(Nc3nc4cccc(CNCC(N)=O)n4n3)ccc12 [Example 186, 2-((2-(3-methyl-1H-indazol-6-ylamino)-[1,2,4]triazolo[1,5-a]pyridin-5-yl)methylamino)acetamide] | 0.005 to 250

More lines, now with the values ahead:

IC50 [nM] | SMILES
0.005 to 250 | CC1(C)C(=O)Nc2cc(Nc3nc4cccc(N[C@@H]5CCOC5)n4n3)ccc21 [Example 150, (R)-3,3-dimethyl-6-(5-(tetrahydrofuran-4-ylamino)-[1,2,4]triazolo[1,5-a]pyridin-2-ylamino)indolin-2-one]
0.005 to 250 | CN1C(=O)C(C)(C)c2ccc(Nc3nc4cccc(N[C@H]5CC[C@@H](O)CC5)n4n3)cc21 [Example 152, cis-6-(5-(4-hydroxycyclohexylamino)-[1,2,4]triazolo[1,5-a]pyridin-2-ylamino)-1,3-3-trimethylindolin-2-one]
250 to 500 | Cc1n[nH]c2cc(Nc3nc4cccc(N[C@H]5CCOC5)n4n3)ccc12 [Example 182, (S)-N^2-(3-methyl-1H-indazol-6-yl)-N^5-(tetrahydrofuran-3-yl)-[1,2,4]triazolo[1,5-a]pyridin-2,5-diamine]
0.005 to 250 | COCCN1Cc2cc(Nc3nc4cccc(N[C@H]5CC[C@@H](O)CC5)n4n3)ccc2C1=O [Example 174, cis-5-(5-(4-hydroxycyclohexylamino)-[1,2,4]triazolo[1,5-a]pyridin-2-ylamino)-2-(2-methoxyethyl)isoindolin-1-one]
